According to paper PMC9745132, “Visualization of real-time receptor endocytosis in dopamine neurons enabled by NTSR1-Venus knock-in mice” (Frontiers in Cellular Neuroscience, 2022):
Values joined by “and” are separate entries in the source; they are usually repeats but may differ in a detail not shown here. Identical values can stand only once. Counter-ions that a name gives are not always drawn. *1 amine or outer side, *2 acyl side, *3 side chain or, on linkers, in order; H or OH if unused. Where a SMILES comes first, the peptide text is derived from it. [ ]: non-standard residue; d: D form. X1 = NCCCC[C@H](N)CN([C@@H](CCCCN)C(=O)[*:2])[*:1]; Tle = CC(C)(C)[C@H](N)C(=O)O

Tests used:
[1] = biological target: T1, NTSR1-Venus (Mus musculus, UniProt O88319); assay: NTSR1-Venus endocytosis in primary hippocampal neurons (Venus/EEA1 colocalization; live confocal imaging); format: cell-based
T1 construct: monitoring endogenous NTSR1-Venus receptor endocytosis could differentiate NTSR1 agonists; endogenous in cells; host or cells: primary hippocampal neurons from homozygous NTSR1-Venus knock-in mice (C57BL/6N background)
T1 sequence (O88319 whole entry): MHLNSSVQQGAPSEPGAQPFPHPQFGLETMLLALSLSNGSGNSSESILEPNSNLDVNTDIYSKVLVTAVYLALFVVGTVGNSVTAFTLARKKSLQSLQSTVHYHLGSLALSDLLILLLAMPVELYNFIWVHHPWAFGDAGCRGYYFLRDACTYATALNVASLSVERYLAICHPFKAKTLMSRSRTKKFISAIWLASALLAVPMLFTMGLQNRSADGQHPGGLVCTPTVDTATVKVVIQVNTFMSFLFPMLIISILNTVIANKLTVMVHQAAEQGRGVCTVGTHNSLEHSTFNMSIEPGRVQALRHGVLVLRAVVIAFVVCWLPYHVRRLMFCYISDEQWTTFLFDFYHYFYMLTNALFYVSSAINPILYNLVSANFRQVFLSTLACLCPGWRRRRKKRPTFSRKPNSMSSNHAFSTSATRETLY
Method: To isolate hippocampal neurons, P0 pups were removed from the cage of NTSR1-Venus homozygous knock-in breeding pairs. […] Neurons were plated on Poly-D-Lysine (Sigma) coated surfaces at 100,000 cells per 12 mm coverslip (NeuVitro, Camas, WA, USA) in a 24-well plate for immunostaining or 50,000 cells per well of an 8 well chamber slide (Ibidi, Grafelfing, Germany) for calcium measurements. Plating media [Neurobasal A (Gibco, Grand Island, NY, USA), 1% FBS (Fisher Scientific), 2% B-27 (Gibco, Grand Island, NY, USA), 0.5 mM GlutaMAX (Gibco, Grand Island, NY, USA), and 1x Penicillin/Streptomycin (Invitrogen, Waltham, MA, USA)] was exchanged 1 h after plating to maintenance media (Neurobasal A, 2% B-27, 0.5 mM GlutaMAX, and 1x Penicillin/Streptomycin).

[2] = system: Ntsr1^Venus/Venus and Ntsr1^WT/WT mice; assay: Locomotor activity in activity boxes after i.p. injection; format: in vivo, mouse
Method: Locomotor activity was measured using Plexiglas activity boxes (20 × 20 × 20 cm) surrounded by horizontal and vertical infrared sensor beams (Versamax Omnitech Electronics, Columbus, OH, USA) during the light phase. The total numbers of animals used in locomotion experiments were n = 16 Ntsr1^Venus/Venus and n = 15 Ntsr1^WT/WT mice. Animals were habituated to the room in singly housed cages with home bedding for 1 h, before being injected with either 0.9% saline, 0.2, 0.5, 1, 5 mg/kg, PD149163, dissolved in 0.9% saline, and returned to their home cages for 30 min. Then mice were placed in horizontally opposed chambers, and horizontal movement (cm) was measured over the course of 2 h, in bins of 10 min.
Having established evidence supporting functional NTSR1-Venus receptor signaling (Gq/Ca2+) and receptor endocytosis we next evaluated behavioral responses in these animals. […] First, when animals were not yet habituated to the activity chambers and only received saline injections, we observed somewhat higher activity counts for Ntsr1^Venus/Venus compared to Ntsr1^WT/WT animals (Supplementary Figure 1). […] A significant difference at 0.2 mg/kg and a trend that was not significant at higher doses (0.5, 1, or 5 mg/kg) was observed between Ntsr1^Venus/Venus and Ntsr1^WT/WT animals (Figure 2I). […]

[3] = biological target: T1, NTSR1-Venus; assay: Gq activation ebBRET (Gq EMTA, p63RhoGEF-RlucII / rGFP-CAAX) in HEK293 cells, Venus tagged NTSR1; format: cell-based; details: mean ± SEM
Source text: (§1) The mouse coding sequence of NTSR1 was PCR amplified from pCMV6-mNTSR1 (Origene, Rockville, MD, USA) and subcloned upstream from the IRES feature with a STOP codon before IRES into pIRES (Invitrogen, Waltham, MA, USA) and pIRES-Venus vector previously described ([Hamdan et al., 2005]) resulting in expression of either untagged NTSR1 or NTSR1-Venus. […] The pIRES vector was used The rGFP-CAAX BRET and Gq GEMTA biosensors construct were generated as previously described ([Namkung et al., 2016]; [Avet et al., 2022]).
(§2) HEK293 clonal cell line (HEK293SL cells), hereafter referred as HEK293 cells, were a gift from S. Laporte (McGill University, Montreal, Quebec, Canada) and previously described ([Namkung et al., 2016]). Cells were maintained in Dulbecco’s Modified Eagle Medium (DMEM, Wisent, Saint-Jean-Baptiste, QC, Canada) supplemented with 10% fetal bovine serum (FBS, Wisent) and 1% antibiotics [100 U/mL penicillin and 100 μg/mL streptomycin (PS); Wisent]. Cells were grown at 37°C in 5% CO2 and 90% humidity and checked for mycoplasma contamination. […] The total quantity of DNA was completed at 1 μg with salmon sperm DNA (Invitrogen, Waltham, MA, USA). […]
(§3) Forty-eight hours post-transfection, cells were washed once with phosphate-buffered saline (PBS) then incubated 1 h at 37°C in Tyrode buffer (137 mM NaCI, 0.9 mM KCI, 1 mM MgCI2, 1 1.9 mM NaHCO3, 3.6 mM NaH2PO4, 25 mM HEPES, 5.5 mM Glucose, and 1 mM CaCI2, pH 7.4). […] Bioluminescence resonance energy transfer (BRET) was then measured between RlucII (BRET energy donor) and rGFP (enhanced bystander ebBRET acceptor)–tagged proteins. BRET values were read for 1 s per well using a Mithras™ LB940 Multimode Microplate Reader (Berthold Technologies, Bad Wildbad, Germany) for concentration–response curves. ebBRET values were obtained by calculating the ratio of the light emitted by the energy acceptor over the light emitted by the energy donor (donor 410 ± 70 nm/acceptor 515 ± 20 nm). […] They were then fitted and analyzed in GraphPad Prism (v9.0, GraphPad Software, Inc., San Diego, CA, USA). […]

[4] = biological target: T2, NTSR1 (Mus musculus, UniProt O88319); assay: Gq activation ebBRET (Gq EMTA, p63RhoGEF-RlucII / rGFP-CAAX) in HEK293 cells, untagged NTSR1; format: cell-based; details: mean ± SEM
T2 construct: expressed in transfected cells; host or cells: HEK293 (HEK293SL)
T2 sequence (O88319 whole entry): as above
Source text: as §1, §2, §3

CCOC(=O)[C@H](CC(C)C)NC(=O)[C@@H](NC(=O)[C@H](Cc1c[nH]c2ccccc12)NC(=O)[C@@H]1CCCN1C(=O)[C@H](CCCCN)NC[C@@H](N)CCCCN)C(C)(C)C [PD149163, PD149163 tetrahydrochloride hydrate] (H-[X1]PW[Tle]L-OEt; N-terminus and C-terminus assumed)
time course of NTSR1-Venus in early endosomes ([1]; 1 μM, 5 to 60 min): remained stable
NTSR1-Venus internalization, live confocal imaging ([1]; 1 μM, 20 min live imaging of hippocampal neurons): robust internalization of the receptor
percentage of endosomes containing NTSR1 after 60 min, PD149163 vs neurotensin ([1]; 1 μM, 60 min): significantly higher percentage
NTSR1-Venus redistribution to endosomes (% EEA1 vesicles) ([1]; 1 μM, within the first 5 min of agonist treatment): 92.7% ± 6.9
EC50 ([1]; Ntsr1^Venus/Venus hippocampal neurons, 5 min of agonist treatment, read-out: EC50, NTSR1-Venus endocytosis (ratio of Venus and EEA1 positive to total EEA1 positive endosomes)): 0.465 µM
hypolocomotion in Ntsr1^Venus/Venus and Ntsr1^WT/WT animals ([2]; 0.5 mg/kg i.p., measured 30 min after injection): induced NTSR1 mediated hypolocomotion to a similar extent
total distance traveled over 2 h as compared to saline animals ([2]; i.p. 0.2, 0.5, 1, 5 mg/kg, both genotypes): dose-dependent decrease
EC50 ([3]; given as LogEC50 (negative sign), read-out: Potency [LogEC50 (M)], Gq activation, NTSR1-Venus (converted)): 3.05e-08 M
Efficacy (Raw BRET), Gq activation, NTSR1-Venus [3]: 0.476 Raw BRET and 0.476 ± 0.009 Raw BRET
EC50 ([4]; given as LogEC50 (negative sign), read-out: Potency [LogEC50 (M)], Gq activation, NTSR1 (converted)): 2.81e-08 M
Efficacy (Raw BRET), Gq activation, NTSR1 [4]: 0.220 Raw BRET and 0.220 ± 0.013 Raw BRET
